Results: US6866858B2, “Method and compositions for attracting mosquitoes” (BioSensory, Inc., priority 2000, dated 2005)
Values joined by “and” are separate entries in the source; they are usually repeats but may differ in a detail not shown here. Equal values may be shown once.

Test system: Aedes taeniorhyncus mosquitoes
Assay: Outdoor screened cage mosquito capture test with CO2 collection jar and attractant
Format: in vivo
Details: for Average captured: average of three replicate tests; for Average captured / Total captured: 250 μL attractant + 500 cc/min CO2, 1000 mosquitoes per test; for Mosquitoes captured: single replicate test, 250 μL attractant on fibrous absorbent in CFG 6 jar with 500 cc/min CO2, 1000 mosquitoes introduced, after several hours; for Total captured: sum of three replicate tests; for Average increase in capture over control: versus CO2-only control (average 334 captured)
Experimental: The following tests were conducted by the United States Department of Agriculture in Florida in a large outdoor screened cage of a size of approximately 30 ft.×60 ft.×20 ft. (9.144×18.288×6.096 meters). Into approximately the center of the base of the cage was placed a CFG 6 Collection Jar of American Biophysics providing 500 cc/min CO2. Also placed in the CFG-6 Jar was a fibrous absorbent into which had been absorbed 250 μL of the test attractant compound. There were then introduced into the cage, from the periphery thereof, 1000 Aedes taeniorhyncus mosquitoes. After a period of several hours the collection jar was examined to determine the number of mosquitoes captured. As controls, similar tests were run with the CF 6 Collection jar without any attractant compound, i.e. with only CO2. Three replicate tests were run with each test attractant compound. The compound 1-octyn-3-ol was employed as the attractant compound of this invention and 1-octenol as an example of a prior art attractant.

| Compound | Average captured | Mosquitoes captured | Total captured | Average increase in capture over control | more mosquitoes captured than the prior art 1-octen-3-ol attractant (compared with 1-octen-3-ol in the same test) |
| --- | --- | --- | --- | --- | --- |
| C=CC(O)CCCCC (stereo not drawn) [1-octen-3-ol, reference compound] | Average captured: 568 | 624 and 560 and 520 | 1704 | Average increase in capture over control: 234 | – |
| C#CC(O)CCCCC (stereo not drawn) [1-octyn-3-ol] | Average captured: 735 | 779 and 599 and 826 | 2204 | Average increase in capture over control: 401 | over 71% |
